# In US20220079995A1 (priority 2018, published 2022):
# Assays:
# [1] = system: human nucleus pulposus cells; assay type: cell-based; settings: ascorbic acid alone (170 μM in medium), culture 2 weeks; average ± SEM; control 4.33 ± 0.38
# [2] = system: CSGALNACT1 mRNA; assay type: cell-based, human; settings: ascorbic acid alone; 1 week; GAPDH internal standard; average ± SEM
# [3] = system: ANGPT1 mRNA; assay type: cell-based, human; settings: ascorbic acid alone; 1 week; GAPDH internal standard; average ± SEM
# [4] = system: IGF1 mRNA; assay type: cell-based, human; settings: ascorbic acid alone; 1 week; GAPDH internal standard; average ± SEM
smiles,measurement,setting,value
"O=C1O[C@H]([C@@H](O)CO)C(O)=C1O [Ascorbic Acid, ascorbic acid]",The Ratio of GAG to DNA,[1],5.88 ± 0.73
same,Ratio to Expression Level of CSGALNACT1 mRNA in Control Taken as 1,[2],2.25 ± 0.55
same,Ratio to Expression Level of ANGPT1 mRNA in Control Taken as 1,[3],3.80 ± 0.91
same,Ratio to Expression Level of IGF1 mRNA in Control Taken as 1,[4],8.92 ± 3.30
